Results as given in ChEMBL document CHEMBL1201862, “PubChem BioAssay data set” (2004).
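1) Cells in 96-well plates. 2) Compound, 48 h, 5 concentrations. 3) Linear interpolation between surrounding doses. 4) Unreached endpoint = highest concentration. GI50 marks 50% less growth.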 Active and inactive are the calls of the source. Rule as the data show it: active = GI50 up to about 1.1 µM and inactive = higher.

Key:
Assay in all cases: growth of human tumour cells (NCI), 48 h
BT-549 = tested on: BT-549
DLD-1 = tested on: DLD-1
DMS-273 = tested on: DMS-273
HOP-18 = tested on: HOP-18
KM-20L2 = tested on: KM-20L2
M19-MEL = tested on: M19-MEL
XF498 = tested on: XF498
DMS-114 = tested on: DMS-114

| Compound | GI50 (BT-549) | other results |
| --- | --- | --- |
| NS(=O)(=O)c1nnc(NC(=O)C23CC4CC(CC(C4)C2)C3)s1 | 82.2 µM (inactive) |  |
| S=C(Nc1ccc2cn[nH]c2c1)Nc1ccc2cn[nH]c2c1 | 27.6 µM (inactive) |  |
| CSc1nc2cc(S(=O)(=O)N3CCCCC3)ccc2s1 | > 100 µM (inactive) |  |
| O=C(O)CCN1C(=S)CSC1=S | > 100 µM (inactive) |  |
| CC(C)(CO[C@H]1C[C@H]2CC[C@@]1(C)C2(C)C)[N+](=O)[O-] | 21.5 µM (inactive) |  |
| Clc1ccccc1C(Nc1ncccn1)Nc1ncccn1 | > 100 µM (inactive) |  |
| COc1ccc(CSC2=C(C#N)C(=O)NC3(CCCCC3)S2)cc1 | 48.2 µM (inactive) |  |
| COc1ccc(CCN2C(=O)C=CC2=O)cc1OC | 17.5 µM (inactive) |  |
| C[C@]12CC[C@H]3[C@@H](CCC4=C(Br)C(=O)C=C[C@@]43O)[C@@H]1CCC2=O | 20.7 µM (inactive) |  |
| CCOC(=O)NNC(=O)NCCNC(=O)NNC(=O)OCC | > 100 µM (inactive) |  |
| Cc1cc2c(cc1C)C(=O)C1(C2)Cc2c(C)ccc(C)c2C1=O (stereo unspecified) | > 100 µM (inactive) |  |
| CCC(C)(O)c1cn(-c2ccc(Cl)cc2)nn1 (stereo unspecified) |  | GI50 (DLD-1): > 100 µM (inactive); GI50 (DMS-273): > 100 µM (inactive); GI50 (HOP-18): > 100 µM (inactive); GI50 (KM-20L2): > 100 µM (inactive); GI50 (M19-MEL): > 100 µM (inactive) |
| COc1cccc(C2c3cc4c(cc3OC(N3CCCCC3)C2C)OCO4)c1O (stereo unspecified) | 9.2 µM (inactive) |  |
| CN(C)CCCNC(=O)c1cc(NC(=O)c2cc(NS(=O)(=O)c3ccc4c(c3)C(=O)c3ccccc3C4=O)cn2C)cn1C | 52.7 µM (inactive) |  |
| C[N+]1(C(CO)Cc2c[nH]c3ccccc23)Cc2ccccc2C1 (stereo unspecified) | 77.6 µM (inactive) |  |
| COC(=O)c1cc(=O)nc2cc3cccccc3n12 |  | GI50 (DLD-1): > 100 µM (inactive); GI50 (HOP-18): > 100 µM (inactive); GI50 (KM-20L2): > 100 µM (inactive); GI50 (M19-MEL): > 100 µM (inactive); GI50 (XF498): > 100 µM (inactive) |
| C[N+]12C=CC=C1C(N1CCCC1)c1sc(-c3ccc(Cl)cc3)cc12 (stereo unspecified) | 10.3 µM (inactive) |  |
| O=C1/C(=C/c2ccccc2)CCc2ccc([N+](=O)[O-])cc21 | 31.3 µM (inactive) |  |

| Compound | GI50 (BT-549) | other results |
| --- | --- | --- |
| O=C(N/N=C(COc1cccc(Cl)c1)\N=C\c1ccncc1)c1ccncc1 | > 100 µM (inactive) |  |
| C[C@]12CC/C(=N\O)C=C1CC[C@@H]1C2CC[C@@]2(C)C1CC[C@@H]2OC1CCCCO1 (stereo partly specified) |  | GI50 (DLD-1): 30.7 µM (inactive); GI50 (DMS-114): 22 µM (inactive); GI50 (DMS-273): 17.7 µM (inactive); GI50 (HOP-18): 16.4 µM (inactive); GI50 (KM-20L2): 14.4 µM (inactive); GI50 (M19-MEL): 19.1 µM (inactive) |
| CC(=O)/C(=C\c1ccc(Cl)c(Cl)c1)C(=O)C(C)CN(C)C (stereo unspecified) | 2.26 µM (inactive) |  |
| CC1CC(NN)=Nc2ccccc2N1 (stereo unspecified) | > 100 µM (inactive) |  |
| CNC(=O)CCC(NC(=O)OC(C)(C)C)C(=O)NC(Cc1ccc(NC(=O)CCCCC(C)=O)cc1)C(=O)NCC(=O)NC (stereo unspecified) | > 100 µM (inactive) |  |
| CC(=O)OCC12C(=O)C[C@@H](C)C3(CC(c4ccoc4)OC3=O)C1CCC(OC(C)=O)C21CO1 (stereo partly specified) | > 100 µM (inactive) |  |
| Cc1cc(C)nc(NS(=O)(=O)c2ccc(Nc3c4ccccc4nc4c(C(=O)NCCN(C)C)ccc(Cl)c34)cc2)n1 |  | GI50 (DLD-1): 3.03 µM (inactive); GI50 (DMS-114): 1.01 µM (active); GI50 (KM-20L2): 2.08 µM (inactive); GI50 (M19-MEL): 2.05 µM (inactive); GI50 (XF498): 5.13 µM (inactive) |
| COc1cc2cc(C(=O)N3CC(CCl)c4c3cc(NCCN)c3ccccc43)[nH]c2c(OC)c1OC (stereo unspecified) | 0.0333 µM (active) |  |
| CCC1(CC)C(=O)OC(=O)C1(CC)CC | > 100 µM (inactive) |  |
| O=C(NN=C1NCCCCN1)Nc1ccc(Cl)cc1 | > 100 µM (inactive) |  |
| COc1ccc(OC)c2sc(N3C(=O)/C(=C/c4ccc(N(C)C)cc4)N=C3c3ccccc3)nc12 | 97.1 µM (inactive) |  |
| CCc1[nH]c(=O)c2oc3cc4ccccc4cc3c2c1C(=O)O | > 10 µM (inactive) |  |
| CC1CC(C(=O)OC2OC(COC3OC(CO)C(OC4OC(C)C(O)C(O)C4O)C(O)C3O)C(O)C(O)C2O)C2CCC3(C)C(=CCC4(C)C3CCC3C(C)(CO)C(O)C(O)CC34C)C2C1C (stereo unspecified) | 17.7 µM (inactive) |  |
| CCOC(=O)C1(C#N)C(C#N)(C#N)C1(C#N)C#N | > 100 µM (inactive) |  |
| OCc1ccc2c(c1)CC1(Cc3ccc(/C=N/O)cc3C1)C2 (stereo unspecified) | 10.4 µM (inactive) |  |
| CC1=NNC(=O)C1C1CC(c2c[nH]c3ccccc23)=NNC1=S (stereo unspecified) | 50.2 µM (inactive) |  |
| CC1(C)[C@@H](Cn2cnc3c(N)ncnc32)CC[C@@]1(C)CO | > 100 µM (inactive) |  |
| O=C(/C(=C\c1ccc(Cl)cc1)c1ccccc1)c1ccccc1 |  | GI50 (DLD-1): 93.5 µM (inactive); GI50 (DMS-114): 21.4 µM (inactive); GI50 (HOP-18): > 100 µM (inactive); GI50 (XF498): 37.6 µM (inactive) |
